ChEMBL document CHEMBL1201862, “PubChem BioAssay data set” (2004)
Calls of active or inactive are those of the source.

Legend:
[1] = target: T1, Ubiquitin-conjugating enzyme E2 N (Homo sapiens, UniProt P61088); type: functional;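 also: Dose-response confirmation in a TR-FRET assay detecting UBC13-driven polyubiquitin chain formation, inhibition measured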
T1 sequence (P61088 whole entry): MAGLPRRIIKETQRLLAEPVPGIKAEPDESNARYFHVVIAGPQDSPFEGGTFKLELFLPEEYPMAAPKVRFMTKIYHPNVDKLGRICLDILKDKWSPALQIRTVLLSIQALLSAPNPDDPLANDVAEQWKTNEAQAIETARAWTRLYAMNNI

H9c2 = test: cells; type: functional, cell-based; conditions: Rattus norvegicus, H9c2, Myocardium
[2] = target: T2, Replicative DNA helicase DnaB (Mycobacterium tuberculosis, UniProt P9WMR3); test: DnaB intein splicing inhibitors, dose response, biochemical, cell-free fluorescence (AID 449749); type: functional
T2 sequence (P9WMR3 whole entry): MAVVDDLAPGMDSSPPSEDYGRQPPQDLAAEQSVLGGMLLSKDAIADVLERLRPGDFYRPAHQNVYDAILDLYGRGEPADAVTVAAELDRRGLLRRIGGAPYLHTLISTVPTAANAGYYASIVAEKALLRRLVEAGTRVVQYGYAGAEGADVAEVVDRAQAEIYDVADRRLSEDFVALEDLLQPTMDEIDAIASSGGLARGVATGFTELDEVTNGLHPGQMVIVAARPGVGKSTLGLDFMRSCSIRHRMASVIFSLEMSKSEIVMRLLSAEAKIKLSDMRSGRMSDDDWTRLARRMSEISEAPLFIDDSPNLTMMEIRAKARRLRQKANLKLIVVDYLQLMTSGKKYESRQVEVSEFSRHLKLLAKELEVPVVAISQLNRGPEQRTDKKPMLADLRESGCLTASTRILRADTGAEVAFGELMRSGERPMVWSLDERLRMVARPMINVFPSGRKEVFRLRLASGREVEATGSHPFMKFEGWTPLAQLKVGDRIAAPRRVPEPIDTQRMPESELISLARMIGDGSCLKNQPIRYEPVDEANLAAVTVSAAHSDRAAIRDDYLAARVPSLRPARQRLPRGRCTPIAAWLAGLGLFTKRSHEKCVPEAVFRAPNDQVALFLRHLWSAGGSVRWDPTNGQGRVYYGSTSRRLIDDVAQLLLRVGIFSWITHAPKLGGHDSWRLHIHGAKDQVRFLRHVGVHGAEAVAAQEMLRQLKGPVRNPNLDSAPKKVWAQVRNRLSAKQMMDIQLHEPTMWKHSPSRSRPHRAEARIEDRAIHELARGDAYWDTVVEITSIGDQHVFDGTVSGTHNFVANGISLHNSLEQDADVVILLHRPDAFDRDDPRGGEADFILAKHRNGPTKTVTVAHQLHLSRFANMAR

[3] = target: Heat shock protein HSP 90-alpha (Homo sapiens, UniProt P07900); type: functional, organism-based
Protein RecA = target: T3, Protein RecA (Mycobacterium tuberculosis, UniProt P9WHJ3); test: Fluorescence Cell-Free Homogeneous Dose Retest to Identify Inhibitors of RecA-Intein Splicing Activity. [Related pubchem assays (depositor defined):AID2097, AID2223, AID489010, AID492950]; type: functional
T3 sequence (P9WHJ3 whole entry): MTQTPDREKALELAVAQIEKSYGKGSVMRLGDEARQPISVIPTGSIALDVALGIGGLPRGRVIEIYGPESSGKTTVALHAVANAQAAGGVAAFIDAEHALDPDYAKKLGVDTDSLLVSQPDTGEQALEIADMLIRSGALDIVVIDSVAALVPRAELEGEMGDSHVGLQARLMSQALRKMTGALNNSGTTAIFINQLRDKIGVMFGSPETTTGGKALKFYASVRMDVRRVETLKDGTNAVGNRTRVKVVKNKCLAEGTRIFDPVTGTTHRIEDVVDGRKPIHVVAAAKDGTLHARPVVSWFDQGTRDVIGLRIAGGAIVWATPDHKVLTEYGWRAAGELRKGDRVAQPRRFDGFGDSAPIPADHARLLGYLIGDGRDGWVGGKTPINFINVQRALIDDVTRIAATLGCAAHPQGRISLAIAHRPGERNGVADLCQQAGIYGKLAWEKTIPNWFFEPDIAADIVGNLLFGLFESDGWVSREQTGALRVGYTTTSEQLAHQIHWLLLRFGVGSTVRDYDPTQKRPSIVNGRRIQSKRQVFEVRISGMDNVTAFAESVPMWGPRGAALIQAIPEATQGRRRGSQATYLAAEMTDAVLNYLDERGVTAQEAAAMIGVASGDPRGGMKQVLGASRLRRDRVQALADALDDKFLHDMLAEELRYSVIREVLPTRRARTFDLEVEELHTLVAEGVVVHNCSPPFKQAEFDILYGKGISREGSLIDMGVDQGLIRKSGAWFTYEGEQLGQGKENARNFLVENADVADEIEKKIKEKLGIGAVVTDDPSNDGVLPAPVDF

[4] = Luminescence Cell-Based Dose Confirmation HTS to Identify Activators of 5'UTR Stem-Loop Driven Alpha-Synuclein mRNA Translation in H4 Neuroglioblastoma Cells. [Related pubchem assays: 1829 (Project Summary), 1814 (Primary HTS)]; type: functional
[5] = Luminescence Cell-Based Dose Response HTS to Identify Activators of Luciferase Translation or Activity in H4 […] Cells. [Related pubchem assays: 1829 (Project Summary), 1814 (Primary HTS)]; type: functional
H4 = test: Luminescence Cell-Based Dose Response HTS to Identify Activators of 5'UTR Stem-Loop Driven Prion Protein mRNA Translation in H4 Neuroglioblastoma Cells. [Related pubchem assays: 1829 (Project Summary), 1814 (Primary HTS)]; type: functional; conditions: Homo sapiens
[6] = target: T4, Corticotropin-releasing factor receptor 2/Corticotropin-releasing factor-binding protein (Homo sapiens, UniProt P24387+Q13324); test: Dose Response confirmation of uHTS hits for small molecule antagonists of the CRF-binding protein and CRF-R2 receptor complex.; type: functional; conditions: read-out: IC50_Mean
T4 sequence (Q13324 whole entry): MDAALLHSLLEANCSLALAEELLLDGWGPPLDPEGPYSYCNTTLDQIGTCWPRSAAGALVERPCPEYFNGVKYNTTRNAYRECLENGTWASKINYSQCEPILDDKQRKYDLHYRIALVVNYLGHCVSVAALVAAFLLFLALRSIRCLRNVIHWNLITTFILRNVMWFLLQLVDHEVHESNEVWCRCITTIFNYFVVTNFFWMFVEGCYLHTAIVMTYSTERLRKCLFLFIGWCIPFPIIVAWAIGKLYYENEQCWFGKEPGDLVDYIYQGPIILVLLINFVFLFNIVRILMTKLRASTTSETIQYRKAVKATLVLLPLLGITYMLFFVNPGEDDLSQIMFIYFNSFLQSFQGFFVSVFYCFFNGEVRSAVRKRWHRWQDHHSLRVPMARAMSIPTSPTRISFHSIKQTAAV
T4 sequence (P24387 whole entry): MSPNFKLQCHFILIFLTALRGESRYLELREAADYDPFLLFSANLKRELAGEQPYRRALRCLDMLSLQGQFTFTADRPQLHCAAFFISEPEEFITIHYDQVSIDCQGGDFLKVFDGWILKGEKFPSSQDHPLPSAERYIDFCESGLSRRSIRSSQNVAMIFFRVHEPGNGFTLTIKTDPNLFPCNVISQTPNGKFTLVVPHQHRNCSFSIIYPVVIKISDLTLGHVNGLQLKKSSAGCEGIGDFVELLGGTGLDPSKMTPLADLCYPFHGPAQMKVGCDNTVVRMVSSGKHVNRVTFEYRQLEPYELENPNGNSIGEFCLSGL

[7] = target: T4, Corticotropin-releasing factor receptor 2/Corticotropin-releasing factor-binding protein; test: activators of CRF receptor 2 with binding protein – uHTS hits, confirmation (AID 602473); type: functional; conditions: read-out: EC50_Mean
Cytochrome P450 3A4 = Cytochrome P450 3A4 (Homo sapiens, UniProt P08684);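 also: CYP3A4 tested as one member of a cytochrome P450 panel screen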
Cytochrome P450 3A4, sequence (P08684 whole entry): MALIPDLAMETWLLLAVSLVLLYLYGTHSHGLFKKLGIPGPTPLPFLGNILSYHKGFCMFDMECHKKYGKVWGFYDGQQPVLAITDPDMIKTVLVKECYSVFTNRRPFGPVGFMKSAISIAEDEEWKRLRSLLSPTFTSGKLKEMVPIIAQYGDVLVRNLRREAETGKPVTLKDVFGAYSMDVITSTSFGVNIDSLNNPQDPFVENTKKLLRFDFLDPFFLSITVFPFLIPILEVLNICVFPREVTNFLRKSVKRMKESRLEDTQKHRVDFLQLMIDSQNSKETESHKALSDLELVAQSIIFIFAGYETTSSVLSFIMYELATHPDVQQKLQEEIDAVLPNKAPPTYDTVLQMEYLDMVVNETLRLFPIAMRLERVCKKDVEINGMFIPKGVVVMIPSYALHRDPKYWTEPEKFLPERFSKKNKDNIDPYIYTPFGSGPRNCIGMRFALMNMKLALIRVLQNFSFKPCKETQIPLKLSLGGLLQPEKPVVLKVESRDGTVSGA

[8] = Trypanosoma cruzi growth suppression in host cells – NIH3T3 host cells, beta-gal luminescence, confirmation (AID 2044); type: functional, cell-based;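 also: intracellular parasites grown in NIH/3T3 mouse fibroblasts as host cells; luminescent beta-galactosidase reporter signal from transgenic T. cruzi replicating inside host cells; inhibitors lower the luminescence signal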
[9] = NIH3T3 cell viability loss – ATP luminescence, mouse fibroblasts, counter-screen, dose response (AID 2010); type: functional, cell-based;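 also: cells exposed to compound for about 90 hours before reading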
[10] = non-specific 3'UTR reporter inhibition in Clone20-Shn3RL – cell-based, Renilla luciferase, cherry-picked, counter-screen for Shn3 inhibitor project, dose response (AID 624133); type: functional

## O=C1c2cccc3cccc(c23)C(=O)N1Nc1ccccc1
[1]
  IC50: > 20 µM (inactive)

## CCSc1nnc(NC(=O)C2Cc3ccccc3CN2S(=O)(=O)CC)s1 (stereo unspecified)
H9c2
  IC50: 10 µM (active)

## Oc1cc(-c2ccc(C3CCCCC3)cc2)[nH]n1
[2]
  AC50: 1.99 µM (active)
[3]
  AC50: 8 µM (active)
Protein RecA
  EC50: 1.01 µM (active)

## CC(=O)Nc1cc(C)nn1-c1nc2ccccc2s1
H9c2
  IC50: 11.6 µM (active)

## CCCOc1ccc(OCCSc2nnc(N)s2)cc1
[4]
  EC50: 23.1 µM (active)
[5]
  EC50: 15 µM (active)
H4
  EC50: 15.2 µM (active)

## COc1ccc2cc3cc(C(=O)NCCN4CCc5ccccc5C4)sc3nc2c1
[4]
  EC50: 6.85 µM (active)
[5]
  EC50: 17.8 µM (active)
H4
  EC50: 15.1 µM (active)

## CC(C)(C)C(=O)NC(=S)NCCc1ccccc1
[6]
  IC50: > 47.1 µM (inactive)
[7]
  EC50: > 53 µM (inactive)
Cytochrome P450 3A4
  AC50: 25.1 µM (inconclusive)

## Nc1ccc(Cc2nc3c(ccc4ccccc43)[nH]2)cc1
[4]
  EC50: 14 µM (active)
[5]
  EC50: 24.8 µM (active)
H4
  EC50: 14.7 µM (active)

## COc1cccc(C2(O)CC(C(F)(F)F)=NN2C(=O)c2ccccn2)c1 (stereo unspecified)
[4]
  EC50: 18.5 µM (active)
[5]
  EC50: > 120 µM (not active)
H4
  EC50: 7.55 µM (active)

## CC(=O)c1cc(-c2ccccc2)n(CC(=O)NC2CCCC2)c1C
[4]
  EC50: > 120 µM (not active)
[5]
  EC50: > 120 µM (not active)
H4
  EC50: > 120 µM (not active)

## Cc1c(O)ccc2c3c(c(=O)oc12)CCC(C)C3 (stereo unspecified)
H9c2
  IC50: > 79 µM (inactive)

## CCOC(=O)COc1cccc(C2NC(=O)c3ccccc3O2)c1 (stereo unspecified)
H9c2
  IC50: 12.7 µM (active)

## O=C1C2C3C=CC(CO)(O3)C2C(=O)N1c1ccc(-c2ccccc2)cc1 (stereo unspecified)
[4]
  EC50: > 120 µM (not active)
[5]
  EC50: 8.45 µM (active)
H4
  EC50: 15.5 µM (active)

## CCOC(=O)C1CCCN(C(=O)c2cccc(S(=O)(=O)N(Cc3ccccc3)c3ccccc3OC)c2)C1 (stereo unspecified)
[8]
  EC50: 3.84 µM (active)
[9]
  EC50: 35.2 µM (active)
[6]
  IC50: > 47.1 µM (inactive)
[7]
  EC50: > 53 µM (inactive)

## COc1cc2c(cc1NC(=O)CSc1ccccn1)oc1ccccc12
[4]
  EC50: 10.9 µM (active)
[5]
  EC50: 15 µM (active)
H4
  EC50: 30.4 µM (active)

## CN(C)CC(O)COc1ccc(C(C)(C)c2ccc(OCC(O)CN(C)C)cc2)cc1 (stereo unspecified)
[1]
  IC50: > 20 µM (inactive)

## CC(Sc1nnc(Cc2cccs2)n1C1CC1)C(=O)NC1CCS(=O)(=O)C1 (stereo unspecified)
[6]
  IC50: > 47.1 µM (inactive)
[7]
  EC50: > 53 µM (inactive)

## COc1ccc(OC(=O)c2ccc(Cl)cc2)c(C(C)=O)c1
[6]
  IC50: > 47.1 µM (inactive)
[7]
  EC50: > 53 µM (inactive)

## COc1ccc(CC(=O)N(C)CC(=O)Nc2ccccc2Cl)cc1S(=O)(=O)N1CCOCC1
[1]
  IC50: > 20 µM (inactive)

## CC(C)(C)c1nc(CN2CCCCC2)cc(CN2CCCCC2)c1O
[6]
  IC50: > 47.1 µM (inactive)
[7]
  EC50: > 53 µM (inactive)

## Cc1cc(C)cc(C(=O)NCC(=O)OCC(=O)NCC(F)(F)F)c1
[10]
  AC50: 9.91 µM (active)

## Sc1nc2ccccc2c2ccccc12
H9c2
  IC50: 31.5 µM (inactive)

## Cc1nc(-c2ccccn2)nc(S)c1Cl
H9c2
  IC50: > 79 µM (inactive)

## O=C(NN1C(=O)c2ccc3c4c(ccc(c24)C1=O)CC3)c1ccc(Br)cc1
[1]
  IC50: > 20 µM (inactive)

## O=C(CSc1ccc2nnc(-c3ccc(F)cc3)n2n1)N1CCCc2ccccc21
H9c2
  IC50: > 79 µM (inactive)

## N#CC1=C(N)Oc2cc(N)ccc2C1C1CCCCC1 (stereo unspecified)
[4]
  EC50: > 120 µM (not active)
[5]
  EC50: > 120 µM (not active)
H4
  EC50: > 120 µM (not active)

## COc1ccc(-c2cc3cc(OC)c(OC)cc3cn2)cc1OC
[4]
  EC50: 10.2 µM (active)
[5]
  EC50: 21.7 µM (active)
H4
  EC50: 18 µM (active)

## CCCCn1c(-c2cccs2)nc2nc3ccccc3nc21
[1]
  IC50: > 20 µM (inactive)

## Cc1ccc(C2CN=NC23CCc2ccccc2C3=O)cc1 (stereo unspecified)
[4]
  EC50: 15.3 µM (active)
[5]
  EC50: 23.9 µM (active)
H4
  EC50: > 120 µM (not active)

## CC1(C)c2[nH]c3ccccc3c2C[C@H]2C(=O)N(Cc3ccccc3)C(=O)N21
[6]
  IC50: > 47.1 µM (inactive)
[7]
  EC50: > 53 µM (inactive)

## CCNC(C(=O)c1c[nH]c2c(CC)cccc12)c1ccccc1 (stereo unspecified)
[1]
  IC50: > 20 µM (inactive)

## COc1ccc(OCC(O)CN2CCc3ccccc3C2)cc1 (stereo unspecified)
[6]
  IC50: > 47.1 µM (inactive)
[7]
  EC50: > 53 µM (inactive)

## COc1ccccc1-n1ccnc(SCC(=O)NCc2ccccc2Cl)c1=O
[10]
  AC50: 13 µM (active)

## N#Cc1ccccc1OCC(=O)Nc1nc(-c2ccccn2)cs1
H9c2
  IC50: > 79 µM (inactive)
